Measurements reported in BindingDB's records for doi:10.1021/jm00081a009 (Glaxo Group Research, 1992).

Experiment: Kappa-opioid receptor agonist potency in vitro using rabbit vas deferens(LVD) preparation

First: O=C(Cc1ccc(Cl)c(Cl)c1)N1CCCCC1CN1CC=CCC1 (stereo not drawn)
Second: O=C(Cc1ccc(Cl)c(Cl)c1)N1CCCCC1CN1CCCO1 (stereo not drawn)
The IC50 of the first is 11-fold lower: 6.3 nM for the first, 69 nM for the second.

Compared with `O=C(Cc1ccc(Cl)c(Cl)c1)N1CC2(CC[C@H]1CN1CCCC1)OCCO2`, `O=C1CC[C@@H](CN2CCCC2)N(C(=O)Cc2ccc(Cl)c(Cl)c2)C1` is 2.4-fold higher in IC50: 160 nM for the first, 390 nM for the second. The first is the more potent here.

Going from `NC(=O)[C@@H]1CCN(C(=O)Cc2ccc(Cl)c(Cl)c2)[C@H](CN2CCCC2)C1` to `NC(=O)[C@H]1CC[C@@H](CN2CCCC2)N(C(=O)Cc2ccc(Cl)c(Cl)c2)C1`, the IC50 rises from 1200 nM to > 10000 nM. The first is the more potent here.

Going from `NC(=O)[C@H]1CCC[C@@H](CN2CCCC2)N1C(=O)Cc1ccc(Cl)c(Cl)c1` to `COC(=O)[C@@H]1CCC[C@@H](CN2CCCC2)N1C(=O)Cc1ccc(Cl)c(Cl)c1`, the IC50 falls from > 10000 nM to 110 nM.

Compared with `COC(=O)C1=CCCN(CC2CCCCN2C(=O)Cc2ccc(Cl)c(Cl)c2)C1` (stereo not drawn), `COC(=O)[C@H]1CC[C@@H](CN2CCCC2)N(C(=O)Cc2ccc(Cl)c(Cl)c2)C1` is 20-fold higher in IC50: 15 nM for the first, 300 nM for the second.

With `O=C1CCCN(C(=O)Cc2ccc(Cl)c(Cl)c2)C1CN1CCCC1` (stereo not drawn) the IC50 was 2000 nM.

Experiment: Opioid receptor kappa agonist potency was determined in vitro using rabbit vas deferens(LVD) preparation

First: C[C@H]1CCC[C@@H](CN2CCCC2)N1C(=O)Cc1ccc(Cl)c(Cl)c1
Second: O=C(Cc1ccc(Cl)c(Cl)c1)N1CCCCC1CN1CCCCC1 (stereo not drawn)
The IC50 of the first is 150-fold lower: 1.7 nM for the first, 260 nM for the second. The first is the more potent here.

First: COC(=O)/C=C1\CCN(CC2CCCCN2C(=O)Cc2ccc(Cl)c(Cl)c2)C1 (stereo not drawn)
Second: C=C1CCN(CC2CCCCN2C(=O)Cc2ccc(Cl)c(Cl)c2)C1 (stereo not drawn)
The IC50 of the first is 35-fold higher: 1020 nM for the first, 29 nM for the second. The second is the more potent here.

Going from `COC(=O)[C@@H]1CCN(C(=O)Cc2ccc(Cl)c(Cl)c2)[C@H](CN2CCCC2)C1` to `O=C(Cc1ccc(Cl)c(Cl)c1)N1CC[C@H](O)C[C@H]1CN1CCCC1`, the IC50 rises from 250 nM to 1400 nM (5.6-fold).

Compared with `O=C(Cc1ccc(Cl)c(Cl)c1)N1CCC2(CC1CN1CCCC1)SCCS2` (stereo not drawn), `O=C1CCN(C(=O)Cc2ccc(Cl)c(Cl)c2)C(CN2CCCC2)C1` (stereo not drawn) is 9.2-fold higher in IC50: 5 nM for the first, 46 nM for the second.

`CC1(CN2CCCC2)CCCCN1C(=O)Cc1ccc(Cl)c(Cl)c1` (stereo not drawn) and `C=CCC1(CN2CCCC2)CCCCN1C(=O)Cc1ccc(Cl)c(Cl)c1` (stereo not drawn) cannot be ordered by IC50: > 10000 nM for the first, > 10000 nM for the second.

Compared with `O=C(Cc1ccc(Cl)c(Cl)c1)N1CCCCC1CN1CCC(O)C1` (stereo not drawn), `O=C(Cc1ccc(Cl)c(Cl)c1)N1CCC[C@@H](O)[C@H]1CN1CCCC1` is 670-fold higher in IC50: 0.88 nM for the first, 590 nM for the second. The first is the more potent here.
